Laboratory results taken from patent US8232272B2, “Benzimidazoledihydrothiadiazinone derivatives as fructose-1,6-bisphosphatase inhibitors, and pharmaceutical compositions comprising same” (Merck Patent Gesellschaft mit beschränkter Haftung, priority 2007, dated 2012).
Where a name gives a salt, the structure may show the parent alone.

Test system: rat hepatocyte primary cultures (hepatic glucose production)
Experiment: Hepatic production of glucose in rat hepatocyte primary cultures
Assay type: cell-based, Wistar rat
Details: rat hepatocytes incubated 3 hours with dihydroxyacetone (DHA) as substrate, control = DHA without compounds
Text: Effects of the Various Compounds Described Previously on the Hepatic Production of Glucose in Rat Hepatocyte Primary Cultures
The hepatocytes are isolated from Wistar rat liver via the collagenase perfusion technique described by Seglen (Methods Cell Biol. 1975; 13, 29-83). The cell viability is confirmed by the exclusion test with trypan blue. The isolated hepatocytes are suspended in a William's medium supplemented with foetal calf serum (10%) in 6-well plates. After a 4-hour attachment period, the medium is aspirated to remove the cell debris and replaced with a serum-free and glucose-free MEM medium. The hepatocytes are then cultured for 16 to 18 hours (37° C.; 5% CO2). At the end of culturing and after having aspirated the medium, the glucose production is measured by incubating the hepatocytes for 3 hours in a Krebs buffer supplemented with dihydroxyacetone (DHA) as neoglucogenesis substrate, in the presence or absence of the various compounds described previously. The amount of glucose in the medium is measured in each culture well via a test with glucose oxidase (GOD). The cell protein content is evaluated via the Lowry method. The results are expressed in nanomoles of glucose produced per mg of cell protein. The activity of the test compounds is expressed as a percentage of the control (production of glucose in the presence of DHA but without compounds).
Inhibition of Hepatic Glucose Production

In the case of COc1cccc(-c2nc3cc(C4=NNC(=O)SC4C)ccc3[nH]2)c1 (stereo not shown) [Example 26, 5-[2-(3-methoxyphenyl)-1H-benzimidazol-5-yl]-6-methyl-3,6-dihydro-2H-1,3,4-thiadiazin-2-one], the “Hepatic glucose production. % of the control at 30 μM” value (from here on “Hepatic glucose production. %”) is reported as 38 % of the control.
In the case of COc1cc(-c2nc3cc(C4=NNC(=O)SC4C)ccc3[nH]2)ccc1[S+](C)[O-] (stereo not shown) [Example 26-3, 5-{2-[3-methoxy-4-(methylsulfinyl)phenyl]-1H-benzimidazol-5-yl}-6-methyl-3,6-dihydro-2H-1,3,4-thiadiazin-2-one hydrochloride], the “Hepatic glucose production. %” value is reported as 34 % of the control.
For CC1SC(=O)NN=C1c1ccc2[nH]c(-c3ccc(-n4ccnc4)cc3)nc2c1 (stereo not shown) [Example 26-4, 5-{2-[4-(1H-imidazol-1-yl)phenyl]-1H-benzimidazol-5-yl}-6-methyl-3,6-dihydro-2H-1,3,4-thiadiazin-2-one dihydrochloride], the “Hepatic glucose production. %” value was 28 % of the control.

Target: T1, recombinant human liver fructose-1,6-bisphosphatase (Homo sapiens, UniProt P09467)
T1 sequence (P09467 1-338): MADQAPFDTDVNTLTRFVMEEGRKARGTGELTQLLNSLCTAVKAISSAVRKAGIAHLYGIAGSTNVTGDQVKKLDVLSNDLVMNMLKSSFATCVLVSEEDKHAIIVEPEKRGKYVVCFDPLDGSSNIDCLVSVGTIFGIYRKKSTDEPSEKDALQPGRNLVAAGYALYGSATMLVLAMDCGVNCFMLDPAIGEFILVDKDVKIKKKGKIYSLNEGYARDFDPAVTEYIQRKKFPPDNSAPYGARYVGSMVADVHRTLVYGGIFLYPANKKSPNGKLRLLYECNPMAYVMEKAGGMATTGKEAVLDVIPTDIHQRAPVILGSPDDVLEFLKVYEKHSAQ
Experiment: Inhibition of recombinant human liver fructose-1,6-bisphosphatase (spectrophotometric coupled enzyme assay)
Assay type: biochemical
Details: 0.167 mM fructose-1,6-bisphosphate, pH 7.5, room temperature, 30 minutes at 340 nm, read-out: Inhibition of human F-1,6-BPase IC50
Text: […]

In order of rising IC50:
1. CC1SC(=O)NN=C1c1ccc2[nH]c(-c3ccc(-n4ccnc4)cc3)nc2c1 (stereo not shown) [Example 26-4, 5-{2-[4-(1H-imidazol-1-yl)phenyl]-1H-benzimidazol-5-yl}-6-methyl-3,6-dihydro-2H-1,3,4-thiadiazin-2-one dihydrochloride]  3.6 µM
2. COc1cc(-c2nc3cc(C4=NNC(=O)SC4C)ccc3[nH]2)ccc1[S+](C)[O-] (stereo not shown) [Example 26-3, 5-{2-[3-methoxy-4-(methylsulfinyl)phenyl]-1H-benzimidazol-5-yl}-6-methyl-3,6-dihydro-2H-1,3,4-thiadiazin-2-one hydrochloride]  6.4 µM
3. CC1SC(=O)N(C(C)C)N=C1c1ccc2c(c1)nc(-c1cccc(F)c1)n2C (stereo not shown) [Example 12-3, 5-[2-(3-fluorophenyl)-1-methyl-1H-benzimidazol-5-yl]-3-isopropyl-6-methyl-3,6-dihydro-2H-1,3,4-thiadiazin-2-one]  7 µM
4. CCCN1N=C(c2ccc3c(c2)nc(-c2cccc(F)c2)n3C)C(C)SC1=O (stereo not shown) [Example 12-6, 5-[2-(3-fluorophenyl)-1-methyl-1H-benzimidazol-5-yl]-6-methyl-3-propyl-3,6-dihydro-2H-1,3,4-thiadiazin-2-one]  8.5 µM
5. COc1cccc(-c2nc3cc(C4=NN(C)C(=O)SC4)ccc3n2C2CCCCCC2)c1 [Example 12-7, 5-[1-cycloheptyl-2-(3-methoxyphenyl)-1H-benzimidazol-5-yl]-3-methyl-3,6-dihydro-2H-1,3,4-thiadiazin-2-one]  36 µM

Test system: not given
Experiment: not given
Details: not given

First: COc1cccc(-c2nc3cc(C4=NNC(=O)SC4C)ccc3n2CC(C)C)c1 (stereo not shown)
Second: COc1cccc(-c2nc3cc(C4=NNC(=O)SC4)ccc3n2CC(C)C)c1 [Example 11, 5-[1-isobutyl-2-(3-methoxyphenyl)-1H-benzimidazol-5-yl]-3,6-dihydro-2H-1,3,4-thiadiazin-2-one]
The melting point of the first is lower: 100 to 105 °C for the first, 207 to 209 °C for the second.

First: CCn1c(-c2cccc(OC)c2)nc2cc(C3=NNC(=O)SC3)ccc21 [Example 11-6, 5-[1-ethyl-2-(3-methoxyphenyl)-1H-benzimidazol-5-yl]-3,6-dihydro-2H-1,3,4-thiadiazin-2-one]
Second: CCn1c(-c2cccc(F)c2)nc2cc(C3=NNC(=O)SC3)ccc21 [Example 11-4, 5-[1-ethyl-2-(3-fluorophenyl)-1H-benzimidazol-5-yl]-3,6-dihydro-2H-1,3,4-thiadiazin-2-one]
The melting point of the first is higher: 221 to 223 °C for the first, 214 to 216 °C for the second.

In the case of CCCC1SC(=O)NN=C1c1ccc2c(c1)nc(-c1cccc(C(F)(F)F)c1)n2C (stereo not shown) [Example 11-5, 5-{1-methyl-2-[3-(trifluoromethyl)phenyl]-1H-benzimidazol-5-yl}-6-propyl-3,6-dihydro-2H-1,3,4-thiadiazin-2-one], the melting point is reported as 190 to 192 °C.
